From patent US20250206757A1 (GASHERBRUM BIO, INC., priority 2022, published 2025)

Biological target: GLP-1 Receptor (Homo sapiens, UniProt P43220)
Experiment: GLP-1R agonist cAMP stimulation assay (HEK293/GLP1R/CRE-LUC cells, HTRF cAMP dynamic 2 kit)
Format: cell-based
Details: HEK293/CRE-Luc cell line stably expressing the GLP-1 Receptor; 30 min incubation at 37° C.
Protocol: Activation of GLP-1 receptor is known to stimulate cyclic AMP (cAMP) production in cells which indicates primary coupling to the Gas subunit of the G protein heterotrimeric complex.
To optimize functional activity directed toward Gas coupling, a HEK293/CRE-Luc cell line developed by HDB stably expressing the GLP-1 Receptor was used. 200× concentration of compound working solutions were prepared (Agilent Technologies Bravo) with 1/2 log serial dilution in 384-well Echo LDV plate (Labcyte, Cat #LP-0200). 50 nL/well 200× concentration of compound working solutions were moved to 384-well white low volume plate (Greiner, Cat #784075) using Labcyte ECHO550. 1×10^5 cells/mL HEK293/GLP1R/CRE-LUC (HD Biosciences) cell suspensions prepared with assay buffer [DPBS containing 0.5 mM IBMX (Sigma, Cat #15879) and 0.10% BSA (GENVIEW, Cat #FA016-100g)], 10 μL cell suspensions were added to each well of previous generated assay plate which already contains 50 nL compound at 200× concentration using ThermoFisher Multidrop Combi (1000 cells/well). Seal the plate and incubate at 37° C. with 5% CO2 for 30 min.
After incubation the cAMP assay signal was generated using cAMP dynamic 2 Kit (Cisbio). 5 μL cAMP-d2 working solution was added to each well, followed with 5 μL Anti-cAMP antibody-cryptate working solution added to each well using ThermoFisher Multidrop Combi. Incubate at room temperature for 1 hour protected from light. Read the fluorescence at 665 and 615 nm with Reader PerkinElmer EnVision.

Chain of GLP-1 Receptor (P43220 24-463): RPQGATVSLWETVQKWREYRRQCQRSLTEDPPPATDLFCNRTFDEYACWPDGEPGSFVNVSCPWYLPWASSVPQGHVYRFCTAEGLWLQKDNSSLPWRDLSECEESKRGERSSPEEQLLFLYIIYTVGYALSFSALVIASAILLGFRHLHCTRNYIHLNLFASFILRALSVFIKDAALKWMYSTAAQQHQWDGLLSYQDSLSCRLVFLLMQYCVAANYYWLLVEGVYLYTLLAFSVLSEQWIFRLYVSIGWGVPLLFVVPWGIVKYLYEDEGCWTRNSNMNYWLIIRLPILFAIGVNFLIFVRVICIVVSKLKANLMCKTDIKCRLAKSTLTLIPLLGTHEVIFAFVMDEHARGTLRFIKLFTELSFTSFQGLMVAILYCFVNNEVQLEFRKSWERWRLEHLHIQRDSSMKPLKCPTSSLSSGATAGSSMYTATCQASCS

EC50 | SMILES
< 1 nM | CSc1nnc(-c2ccc3c(c2)nc(CN2CCc4cc(C(F)(F)F)c(OCc5ccc(Cl)cc5F)nc4C2)n3C[C@@H]2CCO2)[nH]1 [Compound 86, 2-[(4-chloro-2-fluorophenyl)methoxy]-7-({5-[5-(methylsulfanyl)-4H-1,2,4-triazol-3-yl]-1-{[(2S)-oxetan-2-yl]methyl}-1H-1,3-benzodiazol-2-yl}methyl)-3-(trifluoromethyl)-5,6,7,8-tetrahydro-1,7-naphthyridine]
< 1 nM | CNC(=O)c1nnc(-c2cc3nc(CN4CCc5cc(C(F)(F)F)c(OCc6ccc(Cl)cc6F)nc5C4)n(C[C@@H]4CCO4)c3cn2)[nH]1 [Compound 94, 5-[2-({2-[(4-chloro-2-fluorophenyl)methoxy]-3-(trifluoromethyl)-5,6,7,8-tetrahydro-1,7-naphthyridin-7-yl}methyl)-3-{[(2S)-oxetan-2-yl]methyl}-3H-imidazo[4,5-c]pyridin-6-yl]-N-methyl-4H-1,2,4-triazole-3-carboxamide]
1 to 300 nM | O=C(O)CCn1cc(-c2cnc3c(c2)nc(CN2CCc4cc(C(F)(F)F)c(OCc5ccc(Cl)cc5F)nc4C2)n3C[C@@H]2CCO2)nn1 [Compound 99, 3-{4-[2-({2-[(4-chloro-2-fluorophenyl)methoxy]-3-(trifluoromethyl)-5,6,7,8-tetrahydro-1,7-naphthyridin-7-yl}methyl)-3-{[(2S)-oxetan-2-yl]methyl}-3H-imidazo[4,5-b]pyridin-6-yl]-1H-1,2,3-triazol-1-yl}propanoic acid]
< 1 nM | N#Cc1nnc(-c2cc3nc(CN4CCc5cc(Cl)c(OCc6ccc(Cl)cc6F)nc5C4)n(C[C@@H]4CCO4)c3cn2)[nH]1 [Compound 8, 5-[2-({3-chloro-2-[(4-chloro-2-fluorophenyl)methoxy]-5,6,7,8-tetrahydro-1,7-naphthyridin-7-yl}methyl)-3-{[(2S)-oxetan-2-yl]methyl}-3H-imidazo[4,5-c]pyridin-6-yl]-4H-1,2,4-triazole-3-carbonitrile]
< 1 nM | N#Cc1nnc(-c2cnc3c(c2)nc(CN2CCc4cc(C(F)(F)F)c(OCc5ccc(Cl)cc5F)nc4C2)n3C[C@@H]2CCO2)[nH]1 [Compound 17, 5-[2-({2-[(4-chloro-2-fluorophenyl)methoxy]-3-(trifluoromethyl)-5,6,7,8-tetrahydro-1,7-naphthyridin-7-yl}methyl)-3-{1[(2S)-oxetan-2-yl]methyl}-3H-imidazo[4,5-b]pyridin-6-yl]-4H-1,2,4-triazole-3-carbonitrile]
> 300 nM | O=c1ccc(-c2cc3nc(CN4CCc5cc(C(F)(F)F)c(OCc6ccc(Cl)cc6F)nc5C4)n(C[C@@H]4CCO4)c3cn2)c[nH]1 [Compound 102, 5-[2-({2-[(4-chloro-2-fluorophenyl)methoxy]-3-(trifluoromethyl)-5,6,7,8-tetrahydro-1,7-naphthyridin-7-yl}methyl)-3-{[(2S)-oxetan-2-yl]methyl}-3H-imidazo[4,5-c]pyridin-6-yl]-1,2-dihydropyridin-2-one]
< 1 nM | Fc1cc(Cl)ccc1COc1nc2c(cc1Cl)CCN(Cc1nc3cc(-c4nnc(C(F)(F)F)[nH]4)ncc3n1C[C@@H]1CCO1)C2 [Compound 5, 3-chloro-2-[(4-chloro-2-fluorophenyl)methoxy]-7-[(3-{1[(2S)-oxetan-2-yl]methyl}-6-[5-(trifluoromethyl)-4H-1,2,4-triazol-3-yl]-3H-imidazo[4,5-c]pyridin-2-yl)methyl]-5,6,7,8-tetrahydro-1,7-naphthyridine]
1 to 300 nM | Fc1cc(Cl)ccc1COc1nc2c(cc1C1CC1)CCN(Cc1nc3cc(-c4nnc(C(F)(F)F)[nH]4)cnc3n1C[C@@H]1CCO1)C2 [Compound 3, 2-[(4-chloro-2-fluorophenyl)methoxy]-3-cyclopropyl-7-[(3-{[(2S)-oxetan-2-yl]methyl}-6-[5-(trifluoromethyl)-4H-1,2,4-triazol-3-yl]-3H-imidazo[4,5-b]pyridin-2-yl)methyl]-5,6,7,8-tetrahydro-1,7-naphthyridine]

More lines, now with the values behind:

SMILES | EC50
O=C(O)c1ccc2c(n1)nc(CN1CCc3cc(C(F)(F)F)c(OCc4ccc(Cl)cc4F)nc3C1)n2C[C@@H]1CCO1 [Compound 25, 2-({2-[(4-chloro-2-fluorophenyl)methoxy]-3-(trifluoromethyl)-5,6,7,8-tetrahydro-1,7-naphthyridin-7-yl}methyl)-1-{[(2S)-oxetan-2-yl]methyl}-1H-imidazo[4,5-b]pyridine-5-carboxylic acid] | 1 to 300 nM
CC(c1nc2cc(-c3nnc(C#N)[nH]3)ncc2n1C[C@@H]1CCO1)N1CCc2cc(C(F)(F)F)c(OCc3c(F)cc(Cl)cc3F)nc2C1 (stereo partly drawn) [Compound 84, 5-[2-(1-{2-[(4-chloro-2,6-difluorophenyl)methoxy]-3-(trifluoromethyl)-5,6,7,8-tetrahydro-1,7-naphthyridin-7-yl}ethyl)-3-{1[(2S)-oxetan-2-yl]methyl}-3H-imidazo[4,5-c]pyridin-6-yl]-4H-1,2,4-triazole-3-carbonitrile] | < 1 nM
FC(F)(F)c1cc2c(nc1OCc1ccc(Cl)cc1)CN(Cc1nc3cc(-c4nnc[nH]4)ncc3n1C[C@@H]1CCO1)CC2 [Compound 64, 2-[(4-chlorophenyl)methoxy]-7-[(3-{[(2S)-oxetan-2-yl]methyl}-6-(4H-1,2,4-triazol-3-yl)-3H-imidazo[4,5-c]pyridin-2-yl)methyl]-3-(trifluoromethyl)-5,6,7,8-tetrahydro-1,7-naphthyridine] | 1 to 300 nM
FC(F)c1ccc(COc2nc3c(cc2C(F)(F)F)CCN(Cc2nc4cc(-c5nnc(C(F)(F)F)[nH]5)ncc4n2C[C@@H]2CCO2)C3)cc1 [Compound 73, 2-{[4-(difluoromethyl)phenyl]methoxy}-7-[(3-{[(2S)-oxetan-2-yl]methyl}-6-[5-(trifluoromethyl)-4H-1,2,4-triazol-3-yl]-3H-imidazo[4,5-c]pyridin-2-yl)methyl]-3-(trifluoromethyl)-5,6,7,8-tetrahydro-1,7-naphthyridine] | < 1 nM
O=c1[nH]c(-c2cnc3c(c2)nc(CN2CCc4ccc(OCc5ccc(Cl)cc5F)nc4C2)n3C[C@@H]2CCO2)no1 [Compound 1, (S)-3-(2-((2-((4-chloro-2-fluorobenzyl)oxy)-5,8-dihydro-1,7-naphthyridin-7(6H)-yl)methyl)-3-(oxetan-2-ylmethyl)-3H-imidazo[4,5-b]pyridin-6-yl)-1,2,4-oxadiazol-5(4H)-one] | 1 to 300 nM
Fc1cc(Cl)cc(F)c1COc1nc2c(cc1C(F)(F)F)CCN(Cc1nc3cc(-c4nnc(C(F)(F)F)[nH]4)nnc3n1C[C@@H]1CCO1)C2 [Compound 39, 2-[(4-chloro-2,6-difluorophenyl)methoxy]-7-[(7-{[(2S)-oxetan-2-yl]methyl}-3-[5-(trifluoromethyl)-4H-1,2,4-triazol-3-yl]-7H-imidazo[4,5-c]pyridazin-6-yl)methyl]-3-(trifluoromethyl)-5,6,7,8-tetrahydro-1,7-naphthyridine] | < 1 nM
Cc1cc2c(nc1OCc1c(F)cc(Cl)cc1F)CN(Cc1nc3cc(-c4noc(=O)[nH]4)ncc3n1C[C@@H]1CCO1)CC2 [Compound 34, 3-[2-({2-[(4-chloro-2,6-difluorophenyl)methoxy]-3-methyl-5,6,7,8-tetrahydro-1,7-naphthyridin-7-yl}methyl)-3-{[(2S)-oxetan-2-yl]methyl}-3H-imidazo[4,5-c]pyridin-6-yl]-4,5-dihydro-1,2,4-oxadiazol-5-one] | < 1 nM
NC(=O)c1nnc(-c2cc3nc(CN4CCc5cc(C(F)(F)F)c(OCc6c(F)cc(Cl)cc6F)nc5C4)n(C[C@@H]4CCO4)c3cn2)[nH]1 [Compound 44, 5-[2-({2-[(4-chloro-2,6-difluorophenyl)methoxy]-3-(trifluoromethyl)-5,6,7,8-tetrahydro-1,7-naphthyridin-7-yl}methyl)-3-{[(2S)-oxetan-2-yl]methyl}-3H-imidazo[4,5-c]pyridin-6-yl]-4H-1,2,4-triazole-3-carboxamide] | < 1 nM
O=C(O)c1ccc2c(c1)nc(CN1CCc3cc(C(F)(F)F)c(OCc4ccc(Cl)cc4F)nc3C1)n2C[C@@H]1CCO1 [Compound 28, 2-({2-[(4-chloro-2-fluorophenyl)methoxy]-3-(trifluoromethyl)-5,6,7,8-tetrahydro-1,7-naphthyridin-7-yl}methyl)-1-{[(2S)-oxetan-2-yl]methyl}-1H-1,3-benzodiazole-5-carboxylic acid] | < 1 nM
Cc1cc2c(nc1OCc1c(F)cc(Cl)cc1F)CN(Cc1nc3cc(-c4nnc(C#N)[nH]4)ncc3n1C[C@@H]1CCO1)CC2 [Compound 40, 5-[2-({2-[(4-chloro-2,6-difluorophenyl)methoxy]-3-methyl-5,6,7,8-tetrahydro-1,7-naphthyridin-7-yl}methyl)-3-{[(2S)-oxetan-2-yl]methyl}-3H-imidazo[4,5-c]pyridin-6-yl]-4H-1,2,4-triazole-3-carbonitrile] | < 1 nM
Cc1cc2c(nc1OCc1c(F)cc(Cl)cc1F)CN(Cc1nc3cc(-c4noc(=O)[nH]4)ccc3n1C[C@@H]1CCO1)CC2 [Compound 37, 3-[2-({2-[(4-chloro-2,6-difluorophenyl)methoxy]-3-methyl-5,6,7,8-tetrahydro-1,7-naphthyridin-7-yl}methyl)-1-{[(2S)-oxetan-2-yl]methyl}-1H-1,3-benzodiazol-5-yl]-4,5-dihydro-1,2,4-oxadiazol-5-one] | < 1 nM
